Data taken from US20220233661A1, “METHOD OF DETERMINING ELIGIBILITY OF CANCER PATIENT FOR PEPTIDE VACCINE THERAPY” (priority 2019, published 2022).

What was measured:
[1] = tested on: cancer patients; assay: Test Example 4: correlation between vaccination with individual peptides (or peptide sets) and OS, Cox proportional hazards regression; type: in vivo, human; conditions: for HR: Cox proportional hazards regression, OS; for Correlation between immune responses and OS: Negative (mOS) / Correlation between immune responses and OS: Positive (mOS): Table 20, <64% neutrophil and ≥26% lymphocyte; for Correlation between immune responses and OS: Negative (mOS): vaccinated patients with negative IgG response; for Correlation between immune responses and OS: Positive (mOS): vaccinated patients with positive IgG response
Outline: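 Univariate and multivariate Cox proportional hazards regression of each of 31 vaccine peptides against OS (enrollment to death or last contact), giving HR with 95% CI; also run separately in 2,085 advanced (stage IV+recurrence) and 503 stage I-III patients. Two-sided p<0.05 considered significant.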

[2] = tested on: anti-peptide IgG in plasma; assay: Test Example 4: peptide-specific IgG titer pre and post vaccination, bead-based multiplexed Luminex assay; type: in vivo, human; conditions: for Pre-vaccination IgG Negative (number of patients) / Pre-vaccination IgG Positive (number of patients): cut off 10 FIU; for Post vaccination IgG: number of (positive) patients among vaccinated: positive IgG response; for Pre-vaccination IgG Negative patients: number of 2,588 patients below 10 FIU; for Pre-vaccination IgG Positive patients: number of 2,588 patients with ≥10 FIU; for Post vaccination IgG: (positive) patients: number of vaccinated patients with positive IgG response; for Correlation between immune responses and OS: Negative (mOS): patients with negative post-vaccination IgG response to the peptide; for Correlation between immune responses and OS: Positive (mOS): patients with positive post-vaccination IgG response to the peptide
Outline: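 Plasma taken before vaccination and at the end of the first and second cycles; incubated with peptide-coupled beads 2 hours at 25° C., then biotinylated anti-human IgG (gamma chain-specific) and streptavidin-PE. Bead FIU read by Luminex; positivity cutoff 10 FIU in 100-fold diluted samples.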

[3] = Table 18, all 2,588 cases, vaccinated vs non-vaccinated
[4] = Table 18, all 2,588 cases, median OS of patients under PPV containing the peptide
[5] = Table 18, all 2,588 cases, median OS of patients under PPV not containing the peptide
[6] = Table 19, 2,085 advanced cancer patients (stage IV+recurrence)
[7] = Table 19, 2,085 advanced cancer patients (stage IV+recurrence), PPV containing the peptide
[8] = Table 19, 2,085 advanced cancer patients (stage IV+recurrence), PPV not containing the peptide
[9] = Table 21, patients showing both <64% neutrophil and ≥26% lymphocyte
[10] = Table 21, patients showing both <64% neutrophil and ≥26% lymphocyte, PPV containing the peptide
[11] = Table 21, patients showing both <64% neutrophil and ≥26% lymphocyte, PPV not containing the peptide
[12] = Table 20, patients showing both <64% neutrophil and ≥26% lymphocyte
[13] = patients showing detectable levels
[14] = patients showing positive responses

Row | Sequence | HR [1, 3] | Vaccinate cases (mOS) [1, 4] | Non-vaccinate cases (mOS) [1, 5] | HR [1, 6] | Vaccinate cases (mOS) [1, 7] | Non-vaccinate cases (mOS) [1, 8] | Correlation between immune responses and OS: Negative (mOS) [1] [months] | Correlation between immune responses and OS: Positive (mOS) [1] [months] | HR [1, 9] | Vaccinate cases (mOS) [1, 10] | Non-vaccinate cases (mOS) [1, 11] | Post vaccination IgG Median (FIU) [2, 12] | Pre-vaccination IgG Median (FIU) [2, 12] [FIU] | Pre-vaccination IgG Negative (number of patients) [2, 12] | Pre-vaccination IgG Positive (number of patients) [2, 12] | Post vaccination IgG: number of (positive) patients among vaccinated [2, 12] | Pre-vaccination IgG Negative patients [2] | Pre-vaccination IgG Positive patients [2] | Post vaccination IgG: (positive) patients [2] | Pre-vaccination IgG Median (FIU) [2, 13] [FIU] | also measured
1 | ASLDSDPWV (listed as Homo sapiens) [WHSC2-103] | 1.0 | 729(11.5) M | 1,465(11.6) M | 1.0 | 581(10.2) M | 1193(10.3) M | 14.4 | 27.1 | 1.0 | 289(17.6) M | 617(18.0) M | 916 FIU | 40 | 381 | 685 | 289(105) | 915 | 1,673 | 729(222) | 43 | Post vaccination IgG Median (FIU) [2, 14]: 827 FIU; Correlation between immune responses and OS: Negative (mOS) [2]: 12.1 months; Correlation between immune responses and OS: Positive (mOS) [2]: 19.6 months
2 | NYSVRYRPGL (listed as Homo sapiens) [MRP3-1293] | 1.1 | 324(11.9) M | 1,226(12.1) M | 1.0 | 253(10.5) M | 993(10.4) M | 12.6 | 24.3 | 1.0 | 132(17.5) M | 493(18.4) M | 6,491 FIU | 27 | 423 | 643 | 132(83) | 1,030 | 1,558 | 324(157) | 27 | Post vaccination IgG Median (FIU) [2, 14]: 6,003 FIU; Correlation between immune responses and OS: Negative (mOS) [2]: 8.6 months; Correlation between immune responses and OS: Positive (mOS) [2]: 20.6 months
3 | VYDYNCHVDL (listed as Homo sapiens) [SART3-109] | 1.0 | 474(12.3) M | 1,948(11.5) M | 1.0 | 376(10.6) M | 1566(10.2) M | 17.1 | 24.1 | 1.0 | 192(19.8) M | 796(18.0) M | 9,770 FIU | 30 | 572 | 494 | 192(116) | 1,382 | 1,206 | 474(223) | 31 | Post vaccination IgG Median (FIU) [2, 14]: 7,875 FIU; Correlation between immune responses and OS: Negative (mOS) [2]: 10.3 months; Correlation between immune responses and OS: Positive (mOS) [2]: 19.0 months
4 | ILEQSGEWWK (listed as Homo sapiens) [Lck-90] | 1.0 | 502(11.3) M | 712(11.0) M | 1.0 | 391(10.3) M | 578(9.4) M | 12 | 26.3 | 1.0 | 210(17.8) M | 297(17.5) M | 4,250 FIU | 43 | 215 | 851 | 210(100) | 501 | 2,087 | 502(187) | 44 | Post vaccination IgG Median (FIU) [2, 14]: 3,350 FIU; Correlation between immune responses and OS: Negative (mOS) [2]: 10.3 months; Correlation between immune responses and OS: Positive (mOS) [2]: 20.9 months
5 | DLLSHAFFA (listed as Homo sapiens) [MAP-432] | 1.0 | 375(11.1) M | 1,087(11.9) M | 1.1 | 296(9.7) M | 892(10.8) M | 15.5 | 29.4 | 1.1 | 133(16.1) M | 460(18.5) M | 947 FIU | 52 | 549 | 517 | 133(45) | 1,280 | 1,308 | 375(97) | 51 | Post vaccination IgG Median (FIU) [2, 14]: 757 FIU; Correlation between immune responses and OS: Negative (mOS) [2]: 12.0 months; Correlation between immune responses and OS: Positive (mOS) [2]: 23.8 months
6 | HYRKWIKDTI (listed as Homo sapiens) [PSA-248] | 0.9 | 283(13.8) M | 1,267(11.6) M | 0.9 | 230(13.0) M | 1016(10.2) M | 9.6 | 27.4 | 0.9 | 107(20.4) M | 518(17.9) M | 18,191 FIU | 47 | 231 | 835 | 107(81) | 553 | 2,035 | 283(200) | 48 | Post vaccination IgG Median (FIU) [2, 14]: 13,165 FIU; Correlation between immune responses and OS: Negative (mOS) [2]: 7.0 months; Correlation between immune responses and OS: Positive (mOS) [2]: 20.2 months
